These results are taken from US10900040B2, “Methods of reducing or preventing intimal damage caused by mechanical stimulation of endothelial cells” (University of Maryland, Baltimore, priority 2015, dated 2021).

One data set has as its target T1, SUR1-TRPM4 channel (Homo sapiens, UniProt Q09428+Q8TD43).
T1 construct: endogenous in cells
In words: Patch clamp recordings of SUR1-TRPM4 channel currents in mechanically stimulated endothelial cells. Type of data set: cell-based. As to conditions: endothelial cells after mechanical stimulation; currents carried by Cs+ ions. The procedure:
FIGS. 2A and 2B. Mechanical stimulation of endothelial cells causes upregulation of functional SUR1-TRPM4 channels. Endothelial cells were cultured in dishes with flexible bottoms and the cells were mechanically stimulated by applying puffs of air to the underside of the dishes. […] FIG. 2B: Amplitudes of SUR1-TRPM4 channel currents measured at −50 mV under control conditions before mechanical activation (CTR), following mechanical activation (STR), following mechanical activation in the presence of the NF-kappaB inhibitor, pyrrolidine dithiocarbamate (PDTC) as negative control, and without mechanical activation, in the presence of tumor necrosis factor alpha (TNFalpha), as positive control.
Endothelial cells were cultured in dishes with flexible bottoms and the cells were mechanically stimulated by applying puffs of air to the underside of the dishes. […] NFκB activation caused robust transcriptional upregulation of the SUR1-TRPM4 channels 6 hours later (FIGS. 1B and 1C). […] The critical role of the mechanosensitive transcription factor, NF-κB, in Sur1-Trpm4 channel upregulation was confirmed using the NF-κB inhibitor, pyrrolidine dithiocarbamate (PDTC) as negative control, and the NF-κB activator, tumor necrosis factor α (TNFα), as positive control (FIG. 2B).

Another data set deals with spinal cord injury. In words: Outcome from spinal cord injury after antisense oligodeoxynucleotides. The class given is in vivo. As to conditions: TRPM4-AS1 and TRPM4-AS2 used together; phosphorothioated. The source says: (§1) In certain embodiments of the invention, antagonists of TRPM4 are employed in methods and/or compositions. Antagonists may be of any kind, but in particular embodiments the antagonists are proteins, nucleic acids, small molecules, and so forth. In specific cases, the TRPM4 antagonists comprise flufenamic acid and/or 9-phenanthrol and/or spermine and/or decavanadate and/or BTP2 and/or anti-TRPM4 antibodies. In specific cases, the TRPM4 nucleic acid antagonists comprises RNAi, such as siRNA or shRNA or antisense oligodeoxynucleotides (AS-ODN).

The test system of a further data set is TRPM4. In words: Reduction of TRPM4 expression by antisense oligodeoxynucleotides. The class given is in vivo. As to conditions: TRPM4-AS1 and TRPM4-AS2 used together; phosphorothioated.
From the text: as §1

T1 sequence (Q09428 whole entry): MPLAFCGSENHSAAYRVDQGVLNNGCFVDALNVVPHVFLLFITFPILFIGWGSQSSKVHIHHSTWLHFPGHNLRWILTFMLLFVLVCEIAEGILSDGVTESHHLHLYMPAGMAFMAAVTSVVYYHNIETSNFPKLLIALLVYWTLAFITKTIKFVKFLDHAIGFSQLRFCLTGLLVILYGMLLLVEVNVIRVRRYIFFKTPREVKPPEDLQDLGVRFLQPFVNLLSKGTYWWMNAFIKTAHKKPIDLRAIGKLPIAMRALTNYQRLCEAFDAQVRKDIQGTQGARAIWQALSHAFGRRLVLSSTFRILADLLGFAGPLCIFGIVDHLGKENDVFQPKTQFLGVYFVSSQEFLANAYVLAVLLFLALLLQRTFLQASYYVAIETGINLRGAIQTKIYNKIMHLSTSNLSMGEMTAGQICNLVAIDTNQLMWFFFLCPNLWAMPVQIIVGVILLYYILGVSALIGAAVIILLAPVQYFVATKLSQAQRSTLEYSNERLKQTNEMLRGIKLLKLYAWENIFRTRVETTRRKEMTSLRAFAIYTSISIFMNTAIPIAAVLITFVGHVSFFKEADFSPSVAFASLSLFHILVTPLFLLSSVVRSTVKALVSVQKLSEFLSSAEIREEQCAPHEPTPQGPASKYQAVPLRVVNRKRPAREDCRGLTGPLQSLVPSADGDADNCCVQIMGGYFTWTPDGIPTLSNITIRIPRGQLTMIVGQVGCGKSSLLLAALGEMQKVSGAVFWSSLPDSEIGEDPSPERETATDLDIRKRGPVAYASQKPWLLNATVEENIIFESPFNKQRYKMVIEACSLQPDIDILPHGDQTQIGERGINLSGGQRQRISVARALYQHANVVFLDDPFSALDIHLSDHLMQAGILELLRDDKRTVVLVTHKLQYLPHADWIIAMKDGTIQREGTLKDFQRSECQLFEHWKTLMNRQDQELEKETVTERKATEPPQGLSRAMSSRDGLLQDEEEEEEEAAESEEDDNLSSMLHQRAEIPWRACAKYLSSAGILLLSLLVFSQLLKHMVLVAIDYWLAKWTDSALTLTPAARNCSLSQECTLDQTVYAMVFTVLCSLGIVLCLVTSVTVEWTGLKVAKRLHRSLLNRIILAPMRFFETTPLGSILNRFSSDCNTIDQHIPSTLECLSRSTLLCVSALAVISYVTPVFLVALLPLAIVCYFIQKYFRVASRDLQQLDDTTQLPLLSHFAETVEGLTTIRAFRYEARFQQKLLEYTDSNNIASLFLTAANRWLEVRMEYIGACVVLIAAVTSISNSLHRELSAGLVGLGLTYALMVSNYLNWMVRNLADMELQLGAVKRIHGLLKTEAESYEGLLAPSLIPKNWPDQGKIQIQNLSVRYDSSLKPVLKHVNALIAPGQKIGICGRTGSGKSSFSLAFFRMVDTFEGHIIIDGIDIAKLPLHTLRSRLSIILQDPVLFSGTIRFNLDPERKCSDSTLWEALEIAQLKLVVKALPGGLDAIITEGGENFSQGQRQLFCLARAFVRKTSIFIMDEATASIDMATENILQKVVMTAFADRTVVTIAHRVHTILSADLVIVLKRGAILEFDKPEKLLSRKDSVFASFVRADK
T1 sequence (Q8TD43 whole entry): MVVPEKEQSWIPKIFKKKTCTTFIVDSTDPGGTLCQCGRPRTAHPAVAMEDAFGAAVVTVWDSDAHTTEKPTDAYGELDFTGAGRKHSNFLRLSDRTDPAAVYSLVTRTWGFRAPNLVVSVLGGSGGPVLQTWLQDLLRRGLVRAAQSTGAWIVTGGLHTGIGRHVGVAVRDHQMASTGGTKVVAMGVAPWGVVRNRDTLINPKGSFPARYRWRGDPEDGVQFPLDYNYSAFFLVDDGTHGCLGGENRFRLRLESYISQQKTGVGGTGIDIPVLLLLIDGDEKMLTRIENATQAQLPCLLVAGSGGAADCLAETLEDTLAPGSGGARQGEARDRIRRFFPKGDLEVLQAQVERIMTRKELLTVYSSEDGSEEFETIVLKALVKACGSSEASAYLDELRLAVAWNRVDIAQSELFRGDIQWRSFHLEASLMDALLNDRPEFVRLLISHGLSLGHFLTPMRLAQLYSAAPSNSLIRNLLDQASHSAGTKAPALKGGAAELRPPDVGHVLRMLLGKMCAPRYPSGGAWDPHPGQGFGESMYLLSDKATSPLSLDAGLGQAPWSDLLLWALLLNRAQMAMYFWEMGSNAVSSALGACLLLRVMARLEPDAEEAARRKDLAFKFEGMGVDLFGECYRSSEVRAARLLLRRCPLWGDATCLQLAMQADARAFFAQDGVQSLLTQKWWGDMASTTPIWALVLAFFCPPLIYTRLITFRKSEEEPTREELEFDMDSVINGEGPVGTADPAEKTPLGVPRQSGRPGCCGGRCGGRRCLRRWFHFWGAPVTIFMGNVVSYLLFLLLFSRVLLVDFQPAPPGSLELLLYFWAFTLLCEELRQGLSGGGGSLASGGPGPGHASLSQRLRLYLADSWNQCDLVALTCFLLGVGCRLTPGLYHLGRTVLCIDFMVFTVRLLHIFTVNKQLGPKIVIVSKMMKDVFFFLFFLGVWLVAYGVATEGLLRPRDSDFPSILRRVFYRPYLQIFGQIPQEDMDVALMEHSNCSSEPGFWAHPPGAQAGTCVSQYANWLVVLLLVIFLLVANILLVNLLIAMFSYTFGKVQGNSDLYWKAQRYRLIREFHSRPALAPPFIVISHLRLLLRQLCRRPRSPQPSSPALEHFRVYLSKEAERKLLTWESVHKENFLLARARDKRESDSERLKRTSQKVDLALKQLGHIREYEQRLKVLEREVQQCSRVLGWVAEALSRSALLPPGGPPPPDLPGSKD

On to `CNC[C@H](O)[C@@H](O)[C@H](O)[C@H](O)CO` [N-methyl-D-glucamine], for which the “effect on SUR1-TRPM4 channel currents (patch clamp)” value on SUR1-TRPM4 channel was “channel blockade”.

On to “5′-CTGCGATAGCACTCGCCAAA-3′ (chemistry not given here) [TRPM4-AS2, antisense oligodeoxynucleotide against TRPM4]”, for which the “improving outcome from spinal cord injury” value in the data set with spinal cord injury was “highly effective”. Further, in the data set on TRPM4, the “reducing TRPM4 expression” value is on record as “highly effective”.

On to “5′-GTGTGCATCGCTGTCCCACA-3′ (chemistry not given here) [TRPM4-AS1, antisense oligodeoxynucleotide against TRPM4]”, for which the “improving outcome from spinal cord injury” value with spinal cord injury was “highly effective”. Further, the “reducing TRPM4 expression” value with TRPM4 is “highly effective”.
